Where a name gives a salt, the structure may show the parent alone.
Columns and labels:
[1] = test system: ouabain-induced arrhythmias; conditions: in vivo; cited from earlier work
[2] = test system: isoprenaline-induced tachycardia; conditions: in vivo; cited from earlier work
[3] = test system: Aspergillus awamori transformed with the aequorin gene; assay: Example 6: aequorin luminometry of [Ca2+]c response (toxicity) in Aspergillus awamori; assay type: cell-based; conditions: FIG. 1A
[4] = Stability in aqueous solution; assay type: physicochemical; conditions: only freshly made stocks are effective; product a lot less toxic
Text: 4 pairs of optical enantiomers or salts thereof of the following chemicals were used in this study: • (R)-(+)-α-Methylbenzyl isocyanate and (S)-(−)-α-Methylbenzyl isocyanate. Only freshly made stocks of α-Methylbenzyl […] are effective.

In the case of CC(C)NCC(O)COc1cccc2ccccc12 (racemic) [propranolol hydrochloride], the “effectiveness in abolishing ouabain-induced arrhythmias” value (shortened to “effectiveness”) [1] is given as “equally effective”.
In the case of CC(C)NCC(O)COc1cccc2ccccc12 (single isomer, unassigned; (+)) [(+)-propranolol], the “activity in blocking isoprenaline-induced tachycardia relative to racemic propranolol” value [2] is given as “less than a hundredth the activity of racemic propranolol” and the “effectiveness” value [1] is given as “equally effective”.
With COC(=O)C1=C(C)NC(C)=C([N+](=O)[O-])[C@@H]1c1ccccc1C(F)(F)F [(R)-(+)-BAY K8644] the “[Ca2+]c response to 10 μM (S)-(−)-BAY K8644” value ([3]; preincubation 5 min with 10 μM simple dilution, n=6) was “significant inhibition” and the “[Ca2+]c final resting level” value ([3]; preincubation with 10 μM, then 10 μM (S)-(−)-BAY K8644) was “lower”.
For CC(N=C=O)c1ccccc1 (stereo not drawn) [α-Methylbenzyl isocyanate], the “stability in aqueous solution” value [4] was “will react with water”.
In the case of “(S)-(−)-propranolol hydrochloride [(S)-(−)-propranolol HCl]”, the “effectiveness” value [1] is listed as “little effect”.
